≈ marks a conversion by molar mass, not a printed value. Like-named read-outs stand apart in the source and are kept apart here.
Experiments:
marA mRNA = assay: Northern blot analysis of marA mRNA with inducer salicylate; assay type: cell-based, E. coli; details: Mar mutant AG102, mutants AP5 and NP3.5 GP
Excerpt: Over expression was also seen in mutant APS3 (data not shown). […] We concluded that AP5, NP3.5GP, and APS3, but not AP1, were probably Mar mutants.

[1] = tested on: E. coli strain WEC and its Pine-Sol-selected mutant; assay: Antibiotic susceptibility by discs (diameter of clearing); assay type: cell-based
Protocol: (§1) Mutants resistant to Pine-Sol/pine oil were obtained from stationary phase LB broth cultures of E. coli strain “WEC” (wild type strain 15-5068 from Carolina Biological Supply Co., Burlington, N.C.) and AG100 (George and Levy, J. Bacteriol. 155:531-540, 1983), at 30° C. on nutrient agar (NP 3.5GP) or LB agar with 2-3 days incubation in a variety of ways: using a 6 mm disc method; plating cells on plates or gradient plates (Curiale and Levy, J. Bacteriol. 151:209-215, 1982), containing PINE-SOL™ (product of Clorox Co., Oakland, Calif.) or pine oil itself.
(§2) Antibiotic susceptibility was measured at 30° C. using antibiotic susceptibility discs (Carolina Biological), gradient plates with the drug in the top agar (Curiale and Levy, 1982) or agar dilution plates (concentration steps of 1.5 fold; inocula of 10^5 cells/5 μl spot). While there was a variability of resistance phenotypes, all Pine-Sol/pine oil-selected mutants were also multidrug resistant (Table 1A, B).

[2] = tested on: E. coli strains (AG100, Pine-Sol/pine oil mutants, Mar mutants); assay: Susceptibility by gradient plates (MIC); assay type: cell-based; details: Escherichia coli
Protocol: as §1, §2

[3] = tested on: E. coli strains bearing mar, soxS or robA plasmids; assay type: cell-based; details: AG102, Mar mutant of AG100; data not shown
Excerpt: Organic solvent tolerance mediated by the marA, soxS, robA and acrAB loci of E. coli is described in White et al. (J. Bacteriol. 179:6122-6126, 1997).

[4] = read-out: Susceptibility by gradient plates (MIC), strain AG102, Mar mutant of AG100, selected on Tc (2 steps)
[5] = read-out: Susceptibility by gradient plates (MIC), strain AP1, mutant of AG100 selected by pine oil on disc
[6] = read-out: Susceptibility by gradient plates (MIC), strain AP5, mutant of AG100 selected as for AP1
[7] = read-out: Susceptibility by gradient plates (MIC), strain APS3, mutant of AG100 selected on Pine-Sol gradient (0-1.5%)
[8] = strain AG100, wildtype, read-out: Susceptibility by gradient plates (MIC)
[9] = strain HH180, deletion of 39 kb including mar locus, host MM294, read-out: Susceptibility by gradient plates (MIC)
[10] = strain HH188, HH180 containing pHHM183 (mar+), read-out: Susceptibility by gradient plates (MIC)
[11] = strain HH191, HH180 containing pHHM191 (marR2), read-out: Susceptibility by gradient plates (MIC)
[12] = strain HH193, HH180 containing pHHM193 (marR5), read-out: Susceptibility by gradient plates (MIC)

| Structure (SMILES) | Effect of inducer on over expression of marA mRNA (marA mRNA) | Susceptibility by discs; diameter of clearing ([1]; strain WEC, wild type, 30° C.) | Susceptibility by discs; diameter of clearing ([1]; {}) | MIC [2, 4] | MIC [2, 5] | MIC [2, 6] | MIC [2, 7] | MIC [2, 8] | MIC [2, 9] | MIC [2, 10] | MIC [2, 11] | MIC [2, 12] | Growth in presence of organic solvent [3] |
| --- | --- | --- | --- | --- | --- | --- | --- | --- | --- | --- | --- | --- | --- |
| O=C(O)c1ccccc1O [salicylate] | enhanced |  |  |  |  |  |  |  |  |  |  |  |  |
| CN(C)[C@@H]1C(O)=C(C(N)=O)C(=O)[C@@]2(O)C(O)=C3C(=O)c4c(O)cccc4[C@@](C)(O)[C@H]3C[C@@H]12 [Tc, tetracycline] |  | 21 mm | 14 mm | > 12.8 µg/mL | 2.4 µg/mL (≈ 5.4 µM) | 4.5 µg/mL (≈ 10.1 µM) | 5.3 µg/mL (≈ 11.9 µM) | 1.8 µg/mL (≈ 4.05 µM) | < 0.6 µg/mL | 1.2 µg/mL (≈ 2.7 µM) | 8.2 µg/mL (≈ 18.5 µM) | > 11.4 µg/mL |  |
| CCCCC [n-pentane] |  |  |  |  |  |  |  |  |  |  |  |  | grew |
| CC1(C)S[C@@H]2[C@H](NC(=O)[C@H](N)c3ccccc3)C(=O)N2[C@H]1C(=O)O [Ap, ampicillin] |  | 22 mm | 12 mm | 85 µg/mL (≈ 243 µM) | 3 µg/mL (≈ 8.59 µM) | 7.2 µg/mL (≈ 20.6 µM) | 7.7 µg/mL (≈ 22 µM) | < 1.2 µg/mL | < 0.6 µg/mL | < 1 µg/mL | 5.4 µg/mL (≈ 15.5 µM) | 5.9 µg/mL (≈ 16.9 µM) |  |

— patent publication US6448006B1, “Methods and compositions for reducing bacterial tolerance to antibacterials disinfectants and organic solvents” (priority 1997, dated 2002)
